Results from US10654834B2 (Venenum Biodesign, LLC, priority 2016, dated 2020).

Legend:
[1] = target: T1, human TGR5 receptor (Homo sapiens, UniProt Q8TDU6); experiment: Human TGR5 cAMP production assay (hTGR5-CHO cells, DiscoveRx cAMP XS+ kit); assay type: cell-based; conditions: luminescent cAMP assay, read-out: Human TGR5 Lum. cAMP Activity (EC50)
T1 construct: host or cells: CHO-K1 (hTGR5-CHO)
T1 sequence (Q8TDU6 1-330): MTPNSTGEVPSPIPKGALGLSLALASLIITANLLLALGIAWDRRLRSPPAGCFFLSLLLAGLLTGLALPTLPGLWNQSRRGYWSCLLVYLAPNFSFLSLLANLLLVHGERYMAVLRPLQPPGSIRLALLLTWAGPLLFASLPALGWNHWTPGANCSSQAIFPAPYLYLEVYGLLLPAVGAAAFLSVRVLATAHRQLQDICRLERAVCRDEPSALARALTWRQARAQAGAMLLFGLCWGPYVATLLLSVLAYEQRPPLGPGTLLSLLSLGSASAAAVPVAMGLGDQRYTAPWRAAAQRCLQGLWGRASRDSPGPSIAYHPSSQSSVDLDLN
Outline: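 EC50 values come from luminescent enzyme-complementation cAMP detection, read after overnight incubation. Beforehand, hTGR5-expressing CHO-K1 cells with IBMX and anti-cAMP antibody were exposed 1 h at room temperature to serially diluted (half-log) compounds.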

[2] = target: T2, mouse TGR5 receptor (Mus musculus, UniProt Q80SS6); experiment: Mouse TGR5 HTRF cAMP production assay (HEK293-EBNA cells, Cisbio cAMP HiRange kit); assay type: cell-based; conditions: HEK293-EBNA cells overexpressing mouse TGR5, HTRF cAMP assay
T2 construct: host or cells: HEK293-EBNA (293 c18, ATCC CRL10852)
T2 sequence (Q80SS6 1-329): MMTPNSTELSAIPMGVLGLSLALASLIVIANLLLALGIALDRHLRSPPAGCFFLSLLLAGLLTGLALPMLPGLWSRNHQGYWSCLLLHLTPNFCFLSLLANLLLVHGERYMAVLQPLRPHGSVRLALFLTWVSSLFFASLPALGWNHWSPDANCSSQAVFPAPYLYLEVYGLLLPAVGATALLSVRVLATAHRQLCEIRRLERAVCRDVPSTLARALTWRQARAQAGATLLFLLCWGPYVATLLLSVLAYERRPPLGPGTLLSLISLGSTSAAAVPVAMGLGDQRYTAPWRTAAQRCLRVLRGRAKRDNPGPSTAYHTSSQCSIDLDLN
Outline: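 cAMP accumulation was read by competitive HTRF after 1 h room-temperature compound treatment, with a further 1 h conjugate incubation. Cells were mouse TGR5-overexpressing HEK293-EBNA in serum-free DMEM plus 500 μM IBMX. Compounds ran as 12-point half-log series in duplicate, and EC50 values were reported.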

Row | Compound | EC50 [1] [nM] | EC50 [2] [nM]
1 | CN(CC#CCOC1CCN(c2cc(N3CCC[C@H]3C(=O)NCCc3ccc(C#N)cc3)nc(C(F)(F)F)n2)CC1)CCS(=O)(=O)O [Compound 135, (S)-2-((4-((1-(6-(2-((4-cyanophenethyl)carbamoyl)pyrrolidin-1-yl)-2-(trifluoromethyl)pyrimidin-4-yl)piperidin-4-yl)oxy)but-2-yn-1-yl)(methyl)amino)ethanesulfonic acid] | 100 to 999 | < 100
2 | CN(C)CC(=O)N1CCN(c2cc(N3CCC[C@@H](C(=O)NCCc4ccc(C(F)(F)F)cc4)C3)nc(C(F)(F)F)n2)CC1 [Compound 338, (R)-1-(6-(4-(2-(dimethylamino)-acetyl)piperazin-1-yl)-2-(trifluoromethyl)-pyrimidin-4-yl)-N-(4-(trifluoromethyl)phenethyl)-piperidine-3-carboxamide] | 100 to 999 | 100 to 999
3 | O=C(CCCC1CCN(c2cc(N3CCC[C@H]3C(=O)NCCc3ccccc3)nc(C(F)(F)F)n2)CC1)NCS(=O)(=O)O [Compound 365, (S)-(4-(1-(6-(2-(phenethylcarbamoyl)pyrrolidin-1-yl)-2-(trifluoromethyl)pyrimidin-4-yl)piperidin-4-yl)butanamido)methanesulfonic acid] | 100 to 999 | 100 to 999
4 | N[C@@H]1C[C@@H](C(=O)NCCc2ccc(C(F)(F)F)cc2)N(c2cc(N3CCC(CCNC(=O)NCCC(=O)O)CC3)nc(C(F)(F)F)n2)C1 [Compound 375, 3-(3-(2-(1-(6-((2S,4R)-4-amino-2-((4-(trifluoromethyl)phenethyl)carbamoyl)pyrrolidin-1-yl)-2-(trifluoromethyl)pyrimidin-4-yl)piperidin-4-yl)ethyl)ureido)propanoic acid] | 1000 to 30000 | 100 to 999
5 | O=C(O)C(=O)N1CCN(c2cc(N3CCC[C@@H](C(=O)NCCc4ccc(C(F)(F)F)cc4)C3)nc(C(F)(F)F)n2)CC1 [Compound 340, (R)-2-oxo-2-(4-(2-(trifluoromethyl)-6-(3-((4-(trifluoromethyl)phenethyl)-carbamoyl)piperidin-1-yl)pyrimidin-4-yl)piperazin-1-yl)acetic acid] | 100 to 999 | < 100
6 | N#Cc1ccc(CCNC(=O)[C@@H]2CCCN2c2cc(-c3ccc(C(=O)O)s3)nc(C(F)(F)F)n2)cc1 [Compound 181, (S)-5-(6-(2-((4-cyanophenethyl)carbamoyl)pyrrolidin-1-yl)-2-(trifluoromethyl)pyrimidin-4-yl)thiophene-2-carboxylic acid] | 100 to 999 | < 100
7 | O=C(O)CCNC(=O)NCCC1CCN(c2cc(N3CCC[C@H]3C(=O)NCCc3ccc(-c4cccnc4)cc3)nc(C(F)(F)F)n2)CC1 [Compound 377, (S)-3-(3-(2-(1-(6-(2-((4-(pyridin-3-yl)phenethyl)carbamoyl)pyrrolidin-1-yl)-2-(trifluoromethyl)pyrimidin-4-yl)piperidin-4-yl)ethyl)ureido)propanoic acid] | 100 to 999 | 100 to 999
8 | O=C(CCCC1CCN(c2cc(N3CCC[C@@H](C(=O)NCCc4ccc(C(F)(F)F)cc4)C3)nc(C(F)(F)F)n2)CC1)NCCS(=O)(=O)O [Compound 336, (R)-2-(4-(1-(2-(trifluoromethyl)-6-(3-((4-(trifluoromethyl)phenethyl)carbamoyl)-piperidin-1-yl)pyrimidin-4-yl)piperidin-4-yl)butanamido)ethanesulfonic acid] | 100 to 999 | < 100
9 | N#Cc1ccc(CCNC(=O)[C@@H]2CCCN2c2cc(-c3ccc(COCC(=O)O)cc3)cc(C(F)(F)F)n2)cc1 [Compound 208, (S)-2-((4-(2-(2-((4-cyanophenethyl)carbamoyl)pyrrolidin-1-yl)-6-(trifluoromethyl)pyridin-4-yl)benzyl)oxy)acetic acid] | 100 to 999 | < 100
10 | N#Cc1ccc(CCNC(=O)[C@@H]2CCCN2c2cc(-c3cccc(CCC(=O)NCCS(=O)(=O)O)c3)nc(C(F)(F)F)n2)cc1 [Compound 190, (S)-2-(3-(3-(6-(2-((4-cyanophenethyl)-carbamoyl)pyrrolidin-1-yl)-2-(trifluoromethyl)pyrimidin-4-yl)phenyl)-propanamido)ethanesulfonic acid] | 1000 to 30000 | < 100
11 | COCCC1CCN(c2cc(N3CC[C@H]3C(=O)NCCc3ccc(C#N)cc3)nc(C(F)(F)F)n2)CC1 [Compound 225, (S)-N-(4-cyanophenethyl)-1-(6-(4-(2-methoxyethyl)piperidin-1-yl)-2-(trifluoromethyl)pyrimidin-4-yl)azetidine-2-carboxamide] | < 100 | < 100
12 | CC(C)(C)OC(=O)NCCC1CCN(c2cc(N3CCC[C@@H](C(=O)NCCc4ccc(C#N)cc4)C3)nc(C(F)(F)F)n2)CC1 [Compound 312, (R)-tert-butyl (2-(1-(6-(3-((4-cyanophenethyl)carbamoyl)piperidin-1-yl)-2-(trifluoromethyl)pyrimidin-4-yl)piperidin-4-yl)ethyl)carbamate] | 100 to 999 | 100 to 999

Now from value to compound:

Row | EC50 [1] [nM] | EC50 [2] [nM] | Compound
13 | < 100 | < 100 | N#Cc1ccc(CCNC(=O)[C@@H]2CCCN2c2cc(N3CCC(CCNc4c(NCCS(=O)(=O)NCC(=O)O)c(=O)c4=O)CC3)nc(C(F)(F)F)n2)cc1 [Compound 370, (S)-2-(2-((2-((2-(1-(6-(2-((4-cyanophenethyl)carbamoyl)pyrrolidin-1-yl)-2-(trifluoromethyl)pyrimidin-4-yl)piperidin-4-yl)ethyl)amino)-3,4-dioxocyclobut-1-en-1-yl)amino)ethylsulfonamido)acetic acid]
14 | < 100 | < 100 | COC(=O)[C@@H](N)CCCCNC(=O)NCCC1CCN(c2cc(N3CC[C@H]3C(=O)NCCc3ccc(C#N)cc3)nc(C(F)(F)F)n2)CC1 [Compound 274, (S)-methyl 2-amino-6-(3-(2-(1-(6-((S)-2-((4-cyanophenethyl)carbamoyl)azetidin-1-yl)-2-(trifluoromethyl)pyrimidin-4-yl)piperidin-4-yl)ethyl)ureido)hexanoate]
15 | < 100 | < 100 | N#CCCC1CCN(c2cc(N3CCC[C@H]3C(=O)NCCc3ccc(C(F)(F)F)cc3)nc(C(F)(F)F)n2)CC1 [Compound 11]
16 | < 100 | < 100 | N#Cc1ccc(CCNC(=O)[C@@H]2CCN2c2cc(N3CCC(CCCC(=O)N[C@@H](CCCNC(=N)N)C(=O)O)CC3)nc(C(F)(F)F)n2)cc1 [Compound 251, (S)-2-(4-(1-(6-((S)-2-((4-cyanophenethyl)carbamoyl)azetidin-1-yl)-2-(trifluoromethyl)pyrimidin-4-yl)piperidin-4-yl)butanamido)-5-guanidinopentanoic acid]
17 | < 100 | < 100 | N#Cc1ccc(CCNC(=O)[C@@H]2CCCN2c2cc(N3CCC(CCCC(=O)NCCN)CC3)nc(C(F)(F)F)n2)cc1 [Compound 92, (S)-1-(6-(4-(4-((2-aminoethyl)amino)-4-oxobutyl)piperidin-1-yl)-2-(trifluoromethyl)pyrimidin-4-yl)-N-(4-cyanophenethyl)pyrrolidine-2-carboxamide]
18 | < 100 | < 100 | N#CCCC1CCN(c2cc(N3CCC[C@@H](C(=O)NCCc4ccc(C#N)cc4)C3)nc(C(F)(F)F)n2)CC1 [Compound 311, (R)-1-(6-(4-(2-cyanoethyl)piperidin-1-yl)-2-(trifluoromethyl)pyrimidin-4-yl)-N-(4-cyanophenethyl)piperidine-3-carboxamide]
19 | < 100 | 100 to 999 | COc1cc(C(F)(F)F)ccc1CCNC(=O)[C@@H]1CCCN(c2cc(N3CCC(CO)CC3)nc(C(F)(F)F)n2)C1 [Compound 331]
20 | < 100 | 100 to 999 | O=C(NCCc1ccc(C(F)(F)F)cc1)[C@@H]1CCN1c1cc(N2CCC(CCCC3CCNCC3)CC2)nc(C(F)(F)F)n1 [Compound 275, (S)-1-(6-(4-(3-(piperidin-4-yl)propyl)piperidin-1-yl)-2-(trifluoromethyl)pyrimidin-4-yl)-N-(4-(trifluoromethyl)phenethyl)azetidine-2-carboxamide]
21 | < 100 | < 100 | N#Cc1ccc(CCNC(=O)[C@@H]2CCCN2c2cc(N3CCC(CCCC(=O)N[C@@H](CCCNC(=N)N)C(=O)O)CC3)cc(C(F)(F)F)n2)cc1 [Compound 200, (S)-2-(4-(1-(2-((S)-2-((4-cyanophenethyl)carbamoyl)pyrrolidin-1-yl)-6-(trifluoromethyl)pyridin-4-yl)piperidin-4-yl)butanamido)-5-guanidinopentanoic acid]
